Values of other authors as cited in US7625901B2, “Substituted monocyclic CGRP receptor antagonists” (Merck & Co., Inc., priority 2006, dated 2009).
No end group written: not given here.

Tests used:
[1] = test system: acute attacks of migraine; settings: clinical trials
[2] = test system: headache induced by CGRP infusion; settings: control group
facial blood flow [3] = settings: marmoset, electrical stimulation of the trigeminal ganglion
facial blood flow [4] = settings: rat, trigeminal ganglion stimulation
[5] = test system: diameter of the middle meningeal artery; settings: rats, electrical stimulation of the dura mater, prior administration

Compound	treating acute attacks of migraine [1]	prevention of headache induced by CGRP infusion [2]	block of increase in facial blood flow (facial blood flow [3])	inhibition of increased facial blood flow (facial blood flow [4])	block of increased diameter of the middle meningeal artery [5]
NCCCC[C@H](NC(=O)[C@@H](Cc1cc(Br)c(O)c(Br)c1)NC(=O)N1CCC(N2Cc3ccccc3NC2=O)CC1)C(=O)N1CCN(c2ccncc2)CC1 [BIBN4096BS]	effective	able to prevent headache	could be blocked	–	–
CGRP(8-37): a peptide CGRP antagonist; fragment of CGRP that lacks seven N-terminal amino acid residues (VTHRLAGLLSRSGGVVKNNFVPTNVGSKAF; ends and bridges not checked; UniProt P06881 90-119, looked up, fragment)	–	–	–	inhibited	blocked
